In publication PMC11720140, “Evaluation of the Anti-Amyloid and Anti-Inflammatory Properties of a Novel Vanadium(IV)–Curcumin Complex in Lipopolysaccharides-Stimulated Primary Rat Neuron-Microglia Mixed Cultures” (International Journal of Molecular Sciences, 2024):

Target: T1, human insulin (HI) (Homo sapiens, UniProt P01308)
T1 construct: gene INS; HI (Actrapid)
Experiment: Thioflavin-T fibrillation assay with insulin ([…] HCl, pH […] °C, […] h)
Assay type: biochemical

T1 sequence (P01308 25-54): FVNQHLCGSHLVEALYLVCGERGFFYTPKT
T1 sequence (P01308 90-110): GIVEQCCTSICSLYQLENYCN

Structure (SMILES): COc1cc(/C=C/C(=O)CC(=O)/C=C/c2ccc(O)c(OC)c2)ccc1O [Curcumin]
- EC50: 44.1 µM
